According to patent publication US20090111781A1, “Use of Cymipristone Type Compounds in Aids Treatment” (SHANGHAI THREE-ALLIANCE BIOTECHNOLOGIES CO., LTD., priority 2005, published 2009):
In brackets after ≈: the same amount, converted by molar mass.

Legend:
[1] = biological target: T1, human glucocorticoid receptor (GR) (Homo sapiens, UniProt P04150); assay: Binding activity on human nuclear receptor GR ([3H]-dexamethasone competition); details: mean ± SD, n = 4
T1 sequence (P04150 1-777): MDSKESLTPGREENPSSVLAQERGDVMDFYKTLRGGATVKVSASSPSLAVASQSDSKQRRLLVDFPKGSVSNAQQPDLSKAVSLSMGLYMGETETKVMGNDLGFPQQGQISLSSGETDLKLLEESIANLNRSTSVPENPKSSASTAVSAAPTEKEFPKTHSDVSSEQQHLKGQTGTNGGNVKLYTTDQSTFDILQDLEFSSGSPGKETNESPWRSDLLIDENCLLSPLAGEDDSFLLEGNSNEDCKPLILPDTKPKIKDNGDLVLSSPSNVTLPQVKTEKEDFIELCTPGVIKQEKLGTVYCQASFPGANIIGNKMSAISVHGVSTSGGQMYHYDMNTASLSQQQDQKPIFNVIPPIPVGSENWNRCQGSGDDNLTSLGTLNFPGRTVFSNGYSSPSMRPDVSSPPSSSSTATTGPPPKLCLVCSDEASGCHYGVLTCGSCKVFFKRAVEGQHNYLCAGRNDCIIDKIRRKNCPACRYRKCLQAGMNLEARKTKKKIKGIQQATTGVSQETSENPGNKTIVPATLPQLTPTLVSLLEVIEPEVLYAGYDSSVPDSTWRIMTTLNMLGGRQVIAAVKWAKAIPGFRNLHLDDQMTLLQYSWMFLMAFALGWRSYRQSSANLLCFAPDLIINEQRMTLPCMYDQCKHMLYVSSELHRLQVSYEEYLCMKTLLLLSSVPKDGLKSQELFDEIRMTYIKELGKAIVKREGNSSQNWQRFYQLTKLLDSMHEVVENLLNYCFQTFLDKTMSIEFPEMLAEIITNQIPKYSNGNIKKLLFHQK
Protocol: Buffer solution is composed of 25 mM NaPO4, 20 mM NaMoO4, 10 mM KF and 10% glycerol (pH=7.3) and stored under 4° C. Stock solution is prepared with CHAPS and DTT and stored under −20° C. […] Add 2.5 μl/hole into 96-pore plate. Take out appropriate amount of buffer solution reserve into solution to make the final concentration of CHAPS and DDT to become 0.25 mM and 2 mM respectively. Add protease inhibitors (aprotinin and leupeptin) to make its final concentration to become 1 μg/μl, and place in an ice bath. […] On the next day, add 25 μl of hydroxyapatite suspension into each pore and mix with shaking. After incubating for 10 min, separate by centrifuge for 3 min at 2500 rpm. The precipitate is washed with 100 μl of buffer solution and separated by centrifuge twice. Add 150 μl of scintillation solution (from Perkin Elmer) into each pore, mix with shaking and count by MicroBeta counter.

[2] = biological target: T2, human glucocorticoid receptor (Homo sapiens, UniProt P04150); assay: Antagonism on dexamethasone in CV-1 cells cotransfected with GR and luciferase reporter; format: cell-based
T2 construct: expressed in transfected cells; host or cells: CV-1 cells
T2 sequence (P04150 1-777): T1 sequence (P04150 1-777)
Protocol: Inoculate (6×10^5) of CV-1 cells into cell culture dish of 60 mm diameter using phenol red-free low-sugar DMEM containing 10% FBS as culture medium and incubate overnight under 37° C. and 5% CO2. Suction according to 1:5 ratio pipet 2 μg of plasmid carried GR genes and luciferase reporting genes, cotransfect CV-1 cells with FuGene 6 transfection reagent (from Roche), and incubate for 8 hours under above conditions, Inoculate the transfected cells into 96-pore micro culture plate, 8000 cells/100 μl/pore, and incubate cells to adhibit on the wall of dish. […] Discard the culture liquid, wash the cells twice with PBS, and pipet off all residual PBS. fragment the cells by CCLR Assay Kit (from Progema) for 15 min. Add 20 μl of fragmentation solution into 96 pore cell culture plate with white edge and white bottom, add CCLR substrate (from Progema), 100 μl/pore, and immediately detect the chemical luminescence count value caused by activated luciferase on Wallac 1420 Multilabel Counter.

[3] = MTT toxicity on PBMC infected by HIV-1 AZT-sensitive strain 018a; details: human, PBMC, 018a
Protocol: (§1) Collect cells with curette, infect cells with 10^−2 AZT sensitive (018a) or AZT resistant (018c) virus strain liquid, and adsorb for 2 hours, Wash off unabsorbed virus with 1640 culture medium without serum, prepare cells infected by virus to 1×10^6/ml with culture solution, and inoculate on 96-pore culture plate, 100 μl/pore. […] Set cell control group and virus infected cell control group. Incubate under 37° C. and 5% CO2. On the fourth day (96 hours), pipette out the supernatant liquid and store under −20° C. for determination of HIV-1 P24 antigen titer and calculation of drug inhibitory action. Add MTT staining to cells for determination of cytotoxicity. Determination of cytotoxicity by MTT staining: Add 10 μl of 5 mg/ml MTT stain into each pore, continue to incubate under 37° C., 5% CO2 and saturated humidity for 4 hours. […] Determine the HIV-1 P24 antigen titer according to the operation procedure provided by the HIV-1 P24 antigen reagent kit. Compare the drug-added group with virus control group. […] Calculation method of 50% toxic concentration (CC50), 50% effective concentration (EC50) and selection index (SI): […]

[4] = MTT toxicity on PBMC infected by HIV-1 AZT-resistant strain 018c; details: human
Protocol: as §1

[5] = test system: HIV-1 AZT-resistant strain 018c P24 antigen; assay: Inhibition of HIV-1 018c P24 antigen in PBMC cell culture; format: cell-based; details: for EC50: Human immunodeficiency virus 1, PBMC, 2 h, PBMC, administration after adsorbing 2 hours; for EC50 / SI: 018c; for SI: SI=CC50/EC50
Protocol: Collect cells with curette, infect cells with 10^−2 AZT sensitive (018a) or AZT resistant (018c) virus strain liquid, and adsorb for 2 hours, Wash off unabsorbed virus with 1640 culture medium without serum, prepare cells infected by virus to 1×10^6/ml with culture solution, and inoculate on 96-pore culture plate, 100 μl/pore. […] Set cell control group and virus infected cell control group. Incubate under 37° C. and 5% CO2. On the fourth day (96 hours), pipette out the supernatant liquid and store under −20° C. for determination of HIV-1 P24 antigen titer and calculation of drug inhibitory action. Add MTT staining to cells for determination of cytotoxicity. Determination of cytotoxicity by MTT staining: Add 10 μl of 5 mg/ml MTT stain into each pore, continue to incubate under 37° C., 5% CO2 and saturated humidity for 4 hours. […] Determine the HIV-1 P24 antigen titer according to the operation procedure provided by the HIV-1 P24 antigen reagent kit. Compare the drug-added group with virus control group. […] Calculation method of 50% toxic concentration (CC50), 50% effective concentration (EC50) and selection index (SI):
(3) Calculation Method of Selection Index (SI) on HIV-1 P24 Antigen in Cell Culture SI=CC50/EC50

[6] = 50% toxic concentration CC50, Experiment 1
[7] = 50% toxic concentration CC50, Experiment 2

## CC#C[C@]1(O)CC[C@H]2[C@@H]3CCC4=CC(=O)CCC4=C3[C@@H](c3ccc(N(C)C4CCCCC4)cc3)C[C@@]21C [Cymipristone, 11β-[4-(N-methyl-N-cyclohexylamino)phenyl]-17α-(1-propynyl)-17β-hydroxyl-4,9-estradiene-3-one]
[1]
  IC50: 0.45 ± 0.069 nM
[2]
  IC50: 0.26 ± 0.02 nM
[2]; gene cotransfected live cells
  Antagonistic activity on human glucocorticoid receptor function caused by dexamethasone (in words): significant antagonistic activity
[3]; 50% toxic concentration CC50, Average
  CC50 at 96 h: 130 µg/mL (≈ 261 µM)
[3]; [6]
  CC50 at 96 h: 104 µg/mL (≈ 208 µM)
[3]; [7]
  CC50 at 96 h: 156 µg/mL (≈ 314 µM)
[4]; [6]
  CC50 at 96 h: 103 µg/mL (≈ 207 µM)
[4]; [7]
  CC50 at 96 h: 104 µg/mL (≈ 210 µM)
[5]; Average
  EC50: 7.9 µg/mL (≈ 15.9 µM)
  SI: 13.18
[5]; Experiment 1
  EC50: 8.42 µg/mL (≈ 16.9 µM)
  SI: 12.21
[5]; Experiment 2
  EC50: 7.38 µg/mL (≈ 14.8 µM)
  SI: 14.15
[5]; conclusion
  Cross resistance with zidovudine (AZT) (in words): no cross resistance
